How the values were obtained:
Assay type in all cases: in vivo
Settings in all cases: applied at 1000 g/h, evaluated after 13 days
Setaria faberi (SETFA) [1] = assay: Herbicidal glasshouse test, post-emergence, SETFA
Outline: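 Setaria faberi seeds were sown in standard soil in pots and grown for 8 days in a glasshouse at 24/16° C. day/night, 14 hours light and 65% humidity. The seedlings were then sprayed post-emergence with the active ingredient in acetone/water (50:50) containing 0.5% Tween 20. Afterwards they were kept under the same conditions, watered twice daily, and scored for percentage damage on a five point scale.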

[2] = tested on: Alopecurus myosuroides (ALOMY); assay: Herbicidal glasshouse test, post-emergence, ALOMY
[3] = tested on: Amaranthus retoflexus (AMARE); assay: Herbicidal glasshouse test, post-emergence, AMARE
Outline: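 Amaranthus retoflexus (AMARE) seeds were sown in pots of standard soil and grown in a glasshouse at 24/16° C. day/night, 14 hours light and 65% humidity for 8 days. The plants were then sprayed post-emergence with an aqueous solution of the active ingredient in acetone/water (50:50) with 0.5% Tween 20. Damage was scored after 13 days.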

Setaria faberi (SETFA) [4] = assay: Herbicidal glasshouse test, pre-emergence, SETFA
[5] = tested on: Amaranthus retoflexus (AMARE); assay: Herbicidal glasshouse test, pre-emergence, AMARE
Outline: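 Amaranthus retoflexus seeds were sown in pots of standard soil and kept one day in a glasshouse at 24/16° C. (day/night), 14 hours light and 65% humidity. They were then sprayed pre-emergence with the active ingredient in acetone/water (50:50) containing 0.5% Tween 20. Plants grew under the same conditions, watered twice daily, and percentage damage was scored after 13 days.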

[6] = tested on: Echinochloa crus-galli (ECHCG); assay: Herbicidal glasshouse test, post-emergence, ECHCG
Outline: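 Echinochloa crus-galli (ECHCG) seeds were sown in standard soil in pots and grown for 8 days in a glasshouse at 24/16° C. day/night, 14 hours light and 65% humidity. The young plants were then sprayed post-emergence with the active ingredient in acetone / water (50:50) containing 0.5% Tween 20. Damage was scored after 13 days.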

[7] = tested on: Ipomoea hederacea (IPOHE); assay: Herbicidal glasshouse test, post-emergence, IPOHE
[8] = tested on: Alopecurus myosuroides (ALOMY); assay: Herbicidal glasshouse test, pre-emergence, ALOMY
Solanum nigrum (SOLNI) [9] = assay: Herbicidal glasshouse test, post-emergence, SOLNI
[10] = tested on: Ipomoea hederacea (IPOHE); assay: Herbicidal glasshouse test, pre-emergence, IPOHE
[11] = tested on: Echinochloa crus-galli (ECHCG); assay: Herbicidal glasshouse test, pre-emergence, ECHCG
Outline: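 Echinochloa crus-galli seeds were sown in standard soil in pots and grown for one day in a glasshouse at 24/16° C. day/night, 14 hours light and 65% humidity. Pre-emergence spraying used an aqueous solution of the active ingredient in acetone/water (50:50) with 0.5% Tween 20. Damage was scored after 13 days on a five point scale.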

Solanum nigrum (SOLNI) [12] = assay: Herbicidal glasshouse test, pre-emergence, SOLNI
Outline: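 Seeds of Solanum nigrum were sown in pots of standard soil and kept one day in a glasshouse at 24/16° C. day/night, 14 hours light and 65% humidity. For the pre-emergence treatment they were then sprayed with an aqueous solution of the active ingredient formulated in acetone/water (50:50) containing 0.5% Tween 20. Plant damage was rated after 13 days.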

Row | Compound | POST Application SETFA, percentage damage (five point scale) (Setaria faberi (SETFA) [1]) | POST Application ALOMY, percentage damage (five point scale) [2] | POST Application AMARE, percentage damage (five point scale) [3] | PRE Application SETFA, percentage damage (five point scale) (Setaria faberi (SETFA) [4]) | PRE Application AMARE, percentage damage (five point scale) [5] | POST Application ECHCG, percentage damage (five point scale) [6] | POST Application IPOHE, percentage damage (five point scale) [7] | PRE Application ALOMY, percentage damage (five point scale) [8] | POST Application SOLNI, percentage damage (five point scale) (Solanum nigrum (SOLNI) [9]) | PRE Application IPOHE, percentage damage (five point scale) [10] | PRE Application ECHCG, percentage damage (five point scale) [11] | PRE Application SOLNI, percentage damage (five point scale) (Solanum nigrum (SOLNI) [12])
1 | Cn1cnnc1NC(=O)c1nn(C)c(=O)n(-c2ccccc2)c1=O [Compound 6.001] | 3 (3=40-59%) | 3 (3=40-59%) | 5 (5=80-100%) | 5 (5=80-100%) | 5 (5=80-100%) | 5 (5=80-100%) | 5 (5=80-100%) | 1 (1=0-19%) | 5 (5=80-100%) | 1 (1=0-19%) | 1 (1=0-19%) | 5 (5=80-100%)
2 | Cn1cnnc1NC(=O)c1nn(C)c(=O)n(-c2cccc(F)c2F)c1=O [Compound 6.002] | 4 (4=60-79%) | 4 (4=60-79%) | 5 (5=80-100%) | 2 (2=20-39%) | 5 (5=80-100%) | 4 (4=60-79%) | 5 (5=80-100%) | 2 (2=20-39%) | 5 (5=80-100%) | 5 (5=80-100%) | 2 (2=20-39%) | 5 (5=80-100%)
3 | CCCCn1c(=O)c(C(=O)Nc2nncn2C)nn(C)c1=O [Compound 6.003] | 2 (2=20-39%) | 3 (3=40-59%) | 5 (5=80-100%) | 5 (5=80-100%) | 5 (5=80-100%) | 1 (1=0-19%) | 5 (5=80-100%) | 1 (1=0-19%) | 4 (4=60-79%) | 5 (5=80-100%) | 4 (4=60-79%) | 5 (5=80-100%)

Reference: patent US20160009693A1, “HERBICIDAL COMPOUNDS” (SYNGENTA LIMITED, priority 2013, published 2016)
